Experimental data taken from patent US20100143999A1, “PROCESS FOR FERMENTIVE PREPARATION OF ALCOHOLS AND RECOVERY OF PRODUCT” (E.I. DU PONT DE NEMOURS AND COMPANY, priority 2008, published 2010).

Legend:
[1] = system: Saccharomyces cerevisiae (W1362 20A); experiment: Glucose Uptake Index of S. cerevisiae culture with 5% (v/v) ionic liquid; format: cell-based; settings: YPD medium, 30° C., 16 hours after addition
Experimental: After 24 hours the test tube was removed and stored at 4° C.

[2] = Extraction of isobutanol from an aqueous solution by ionic liquid; format: physicochemical; settings: 3 mL aqueous solution about 31 g/L isobutanol, 150 microliters (5 vol %) ionic liquid, overnight equilibration
Experimental: (§1) Ethanol and isobutanol concentration in the solution was measured using HPLC as described above following thorough mixing and overnight equilibration of the contents of the vial.

[3] = Extraction of ethanol from an aqueous solution by ionic liquid; format: physicochemical; settings: 3 mL aqueous solution about 31 g/L ethanol, 150 microliters (5 vol %) ionic liquid, overnight equilibration
Experimental: as §1

[4] = system: Saccharomyces cerevisiae (W1362 20A); experiment: Scale-up fermentation (25 mL broth) with 5 volume percent ionic liquid, HPLC over five hours; format: cell-based; settings: five hour time span, FIG. 2
Experimental: Cultures were again prepared using the same growth conditions as described above except that the total broth volume was 25 mL. The selected ionic liquids were added to a container of each broth in an amount of 5 volume percent. In these experiments, small samples were withdrawn from the broth for HPLC analysis periodically over a five hour time span to get a better idea of the extent of metabolic activity after ionic liquid addition as well as to provide information on glucose consumption and product formation. […] The calculation of GUI was made as described above, and amount of ethanol produced was taken directly from the HPLC data.

Molecule	GUI of Example (Glucose Utilization Index in the presence of ionic liquid phase) [1]	Isobutanol (concentration in the solution after extraction) [2] [mM]	Ethanol (concentration in the solution after extraction) [3] [mM]	ethanol production [4]	glucose uptake [4]	GUI of Example (Glucose Utilization Index in the presence of ionic liquid phase) ([1]; listed as 14)
tetradecyl(tri-n-hexyl)phosphonium 1,1,2-trifluoro-2-(perfluoroethoxy)ethanesulfonate [Example 2]	78.4	–	–	–	–	–
1-butyl-3-methylimidazolium 1,1,2-trifluoro-2-(trifluoromethoxy)ethanesulfonate [Example 10]	37.1	–	–	–	–	–
3-methyl-1-propylpyridinium bis(trifluoromethylsulfonyl)imide [Example 12]	97.1	–	–	–	–	–
1-butyl-3-methylimidazolium 1,1,2-trifluoro-2-(perfluoroethoxy)ethanesulfonate [Example 4]	22.0	–	–	–	–	–
CCCCCCn1cc[n+](C)c1.FC(F)(F)C(F)(F)[P-](F)(F)(F)(C(F)(F)C(F)(F)F)C(F)(F)C(F)(F)F [Example 1, 1-hexyl-3-methylimidazolium tris(pentafluoroethyl)trifluorophosphate]	99.7	404	680	remained robust	remained robust	–
1-butyl-3-methylpyrrolidinium bis(trifluoromethylsulfonyl)imide [Example 15]	–	–	–	remained robust	remained robust	–
1-butyl-3-methylimidazolium 2-(1,2,2,2-tetrafluoroethoxy)-1,1,2,2-tetrafluoroethanesulfonate [Example 13]	42.8	–	–	–	–	–
1-ethyl-3-methylimidazolium bis(trifluoromethylsulfonyl)imide [Example 6]	76.8	389	670	remained robust	remained robust	–
CCCCn1cc[n+](C)c1.F[P-](F)(F)(F)(F)F [Example 7, 1-butyl-3-methylimidazolium hexafluorophosphate]	48.2	–	–	–	–	–
1-butyl-3-methylimidazolium 1,1,2,3,3,3-hexafluoropropanesulfonate [Example 11]	30.1	–	–	–	–	31.9
1-hexyl-3-methylimidazolium bis(trifluoromethylsulfonyl)imide [Example 9]	89.5	388	678	remained robust	remained robust	–
